Experimental data reported in US20130273057A1, “METHODS AND COMPOSITIONS FOR THE TREATMENT AND DIAGNOSIS OF VASCULAR INFLAMMATORY DISORDERS OR ENDOTHELIAL CELL DISORDERS” (Beth Israel Deaconess Medical Center, Inc., priority 2007, published 2013).
Ends that are not written are not given here.

Legend:
thrombin = molecular target: T1, thrombin (Homo sapiens, UniProt P00734); test: In vitro thrombin activation colorimetric assay, HUVECs expressing Tie-1 endodomain with human plasma and chromogenic thrombin substrate; type: cell-based; conditions: hirudin 100 U/ml; HUVECs infected with Tie-1 endodomain adenovirus; absorbance at 405 nm
T1 construct: tissue Calbiochem 527420; host or cells: human plasma added to HUVEC monolayers
Procedure: HUVECs were either expressing GFP or Tie-1 endodomain. Whole human plasma supplemented with an excess chromogenic thrombin substrate (sarcosine-Pro-Arg-pNA) (Duncan, Bowie et al., Clin Chem 31: 853-855, (1985)) was added to HUVECs. Cleavage carboxyl-terminal to the arginine residue by thrombin releases […], which can be monitored by absorbance at 405 nm.
Methods: HUVECs were grown to confluency in a 12-well plate. Cells were either uninfected, infected with control GFP adenovirus, or Tie-1 endodomain adenovirus. Next day, medium was changed to fresh full EGM2-MV. 72-hr post infection, cells were washed with EBM2 basal medium (without phenol red), and 0.5 ml of assay medium [EBM2 basal medium (without phenol red)/10% human plasma (Calbiochem 527420)/200 μM chromogenic thrombin substrate (Calbiochem 539518)] was added. Hirudin (Calbiochem 377853, 100 U/ml) was added to one set of cells infected with Tie-1 endodomain. The assay was quenched by the addition of aprotinin (Sigma A1154, 5.6 U/ml). Absorbance at 405 nm was measured using a spectrophotometer and used as an indicator of thrombin activity. […]
Results: We used a colorimetric assay to determine whether expression of Tie-1 endodomain could induce activation of thrombin in vitro. […] Thrombin activation was detected by an increase in absorbance of the cleaved thrombin substrate ([…]) at 405 nm. […]

[1] = system: stenosis after balloon angioplasty; conditions: rabbit, rat, and pig models; cited from earlier work
EphA2 [2] = test: EphA2 tyrosine phosphorylation in HUVECs stimulated with PAR agonistic peptides; type: cell-based, human; conditions: peptides at 20 μM as stimulants
Procedure: FIG. 37 is an immunoblot showing PAR-1 activates EphA2. Confluent HUVECs were stimulated with PAR agonistic peptides TFLLR-NH2 (PAR-1) (SEQ ID NO: 11), RLLFT-NH2 (negative control for PAR-1) (SEQ ID NO: 12), SLIGKV-NH2 (PAR-2) (SEQ ID NO: 13), GYPGKF-NH2 (PAR-4) (SEQ ID NO: 14), and thrombin. Tyrosine phosphorylation of EphA2 was determined by western blot.
Methods: HUVECs were prepared and stimulated as described in above except that the following peptides at 20 μM were used as stimulants: TFLLR-NH2 (PAR-1; SEQ ID NO: 11), RLLFT-NH2 (negative control for PAR-1; SEQ ID NO: 12), SLIGKV-NH2 (PAR-2; SEQ ID NO: 13), and GYPGKF-NH2 (PAR-4; SEQ ID NO: 14).

ICAM-1 = test: Thrombin-induced ICAM-1 upregulation in HUVECs, western blot; type: cell-based, human
Description: FIGS. 33A-33B show thrombin induction of ICAM-1 upregulation in HUVECs is dependent on EphA2. […] Representative data from 3 experiments are shown. FIG. 33B is a graph showing densitometric quantification of the results in […] normalized for fold increase in ICAM-1 expression. Results were reported as fold-increase in ICAM-1 expression relative to unstimulated controls. Data are mean±s.d. of three experiments; * p<0.002.
FIGS. 34A-34B show overexpression of mouse EphA2 rescues thrombin-induced ICAM-1 upregulation in HUVECs with endogenous EphA2 knocked down. […] The cells were treated with human EphA2 specific siRNA as indicated and ICAM-1 upregulation was induced using 1 U/ml thrombin for 6 hours (T). Representative data from 4 experiments are shown. […] “−” and “+” represent without or with thrombin stimulation (1 U/ml, 6 hr). Representative results from two experiments are shown.
Methods: Two validated Stealth siRNA duplexes specific to human EphA2 and a negative control duplexes were purchased from Invitrogen (EphA2 siRNA, catalog number: 12938-022, sequence: 5′-gca agg aag ugg uac ugc ugg acu u-3′ (siRNA #1, SEQ NO ID 33) and control siRNA, catalog number 12935-300, sequence: 5-ggg acc uga ugc aga aca uca uga a-3 (siRNA #2, SEQ NO ID 34)). […] ICAM-1 protein expression were detected by western blots using an anti ICAM-1 antibodies. […]

[3] = system: Tie-1-induced inflammation in HUVECs; test: p38 inhibition study, real-time PCR in HUVECs infected with Tie-1 adenovirus; type: cell-based, human; conditions: 48 hours post infection
Description: FIG. 28 is a graph showing that Tie-1 induced endothelial inflammation is p38 dependent.
Adenovirus construction: For adenovirus production, we chose the AdEasy adenoviral expression system due to its ease of use and ability to generate high titer virus. Coding sequence of mouse Tie-1 excluding the endogenous leader sequence was amplified from cDNA prepared from mouse lung tissue. The following expression cassette was constructed: IgK leader sequence, a Flag epitope tag sequence, and the coding region of mouse Tie-1. This cassette was subcloned into the shuttle vector pAdTrack, which contains two CMV promoters to express the gene of interest and the green fluorescent protein (GFP) independently. After homologous recombination in the E. coli strain BJ5183 (Stratagene), the recombined pAdeasy DNA (PacI-cut) was used to transfect 293A cells (Invitrogen). After several rounds of amplification, the virus was purified using the Ad-Pure Adenoviral Purification Kit (BioVintage) and tittered using 293A as the host. Immediately prior to use, the virus was desalted and buffer-exchanged into endothelial growth medium using a spin column (Pierce). Adenoviral infection: Human umbilical vein endothelial cells (HUVECs) and human aortic endothelial cells (HAECs) were purchased from Cambrex and maintained as recommended by the manufacturer. To overexpress Tie-1, 200,000 endothelial cells were plated in one well of a […]. After overnight incubation, adenovirus harboring the Tie-1 expression cassette was added to the endothelial cells at MOI of 10:1. An “empty virus” expressing only GFP was used as a control. Seventeen hours later, medium was replaced with fresh medium. Cells were maintained and processed at the desired time points for the experiments described below. […] Lysates were immunoprecipitated with an anti-Tiel antibody (Santa Cruz, SC-342). Western blotting with anti phosphotyrosine antibody (4G10, Upstate) was used to determine the phosphorylation status of Tie-1. The membrane was stripped and reblotted with the anti-Tiel antibody. A portion of the lysates was immunoprecipitated with 4G10. Tyrosine phosphorylation of Tie-1 was confirmed by western blotting with the anti-Tiel antibody using these 4G10 immunoprecipitates. Antibody array experiment: HUVECs were infected as described. Forty-eight hours later, supernatants from Tie-1 expressing or GFP expressing cells were collected. After brief centrifugation to remove cell debris, the supernatants were spun through a 0.22-μm cellulose acetate filter (Spin-X, Costar). Cytokine and chemokine contents in the conditioned media were screened using the RayBio Human Inflammation Antibody Array 3.1(RayBiotech). Real-time polymerase chain reactions (PCR)—Total RNAs from endothelial cells were isolated by the RNAeasy Mini Kit (Qiagen) and used as templates in oligo-dT primed reverse transcription using the Superscript III reverse transcriptase (Invitrogen). Real-time PCRs were performed using the QuantiTect Probe PCR Kit (Qiagen) with the 7500 Real Time PCR System (Applied Biosystems). Gene of interest and GAPDH were multiplexed for normalization as described (Dupuy et al., Exp. Cell Res. 185: 363-372., (1989)). The following real time PCR probes were purchased from Applied Biosystems and used in this study: CCL2 5′-[…]-3′(SEQ ID NO: 27); VCAM-1: 5′-[…]-3 (SEQ ID NO: 28)′; ICAM: 5′-[…]-3′(SEQ ID NO: 29); CXCL10: 5′-[…]-3′(SEQ ID NO: 30); E-selectin: 5′-[…]-3′(SEQ ID NO: 31); IL-6: 5′-[…]-3′ (SEQ ID NO: 32). ELISA—HUVECs were infected as described above. Supernatants were collected from Tie-1 expressing or GFP expressing cells 70 hours post infection. The ELISA kit for human IL-6 was purchased from R and D Systems. Western blots—Endothelial cell lysates were prepared in denaturing SDS-PAGE loading buffer, sonicated, heated at 80° C. for 5 mins, and fractionated on SDS-PAGE. […]

EphA2 [4] = test: EphA2 tyrosine phosphorylation in HUVECs (immunoprecipitation/4G10 western blot), Src dependence; type: cell-based, human
Procedure: Confluent HUVECs were pretreated with either DMSO or PP2 for […] and then stimulated with 1 U/ml thrombin or […] Ephrin A1-FC. EphA2 was immunoprecipitated and tyrosine phosphorylation was detected by immunoblot using an anti-phophotyrosine antibody (top panel). The blot was stripped and reblotted with the EphA2 antibody for loading (bottom panel). Representative data from 3 independent experiments are shown.
Methods: Mouse EphrinA1 in a form of FC fusion was purchased from R and D Systems. Pharmacological agents PP2 was used to examine the role of Src in EphA2 phosphorylation. Confluent HUVECs were pretreated with PP2 (2 μM) or DMSO for 1 hour, followed by a 10-min treatment with sodium orthovandate (1 mM). Cells were then stimulated for 30 mins with either 1 U/ml thrombin or 250 ng/ml […]. HUVECs were lysed in RIPA buffer. Clarified lysates were immunoprecipitated with 2 μg of a polyclonal anti human EphA2 antibody (Santa Cruz) and Protein A/G Plus. Tyrosine phosphorylation and EphA2 were detected using the 4G10 and the EphA2 antibody (Santa Cruz), respectively.

hirudin
cleavage of the chromogenic thrombin substrate (thrombin): completely blocked
development of stenosis after balloon angioplasty [1]: reduces

SLIGKV-NH2 [PAR-2 specific agonist]
EphA2 tyrosine phosphorylation (transactivation) in HUVECs (EphA2 [2]): failed to induce

RLLFT-NH2
EphA2 tyrosine phosphorylation (transactivation) in HUVECs (EphA2 [2]): failed to induce

TFLLR-NH2 [PAR-1 specific agonistic peptide]
EphA2 tyrosine phosphorylation (transactivation) in HUVECs (EphA2 [2]): recapitulated EphA2 transactivation

soluble EphA2: soluble EphA2 added in excess during thrombin stimulation
ICAM-1 expression induced by thrombin, block by co-incubation (ICAM-1; soluble EphA2 at concentrations up to 1 μg/ml, thrombin 1 U/ml, 6 hr): failed to block

GYPGKF-NH2 [PAR-4 specific agonist]
EphA2 tyrosine phosphorylation (transactivation) in HUVECs (EphA2 [2]): failed to induce

C[S+]([O-])c1ccc(-c2nc(-c3ccncc3)c(-c3ccc(F)cc3)[nH]2)cc1 (centres unmarked) [SB-203580]
Tie-1-induced CCL2 upregulation [3]: Significant inhibition
Tie-1-induced ICAM-1 upregulation [3]: Significant inhibition
Tie-1-induced upregulation of E-selectin mRNA [3]: almost completely blocked
Tie-1-induced upregulation of IL-6 mRNA [3]: almost completely blocked
Tie-1-induced upregulation of IP-10 mRNA [3]: almost completely blocked
Tie-1-induced upregulation of VCAM-1 mRNA [3]: almost completely blocked

CC(C)(C)n1nc(-c2ccc(Cl)cc2)c2c(N)ncnc21 [PP2]
tyrosine phosphorylation of EphA2 by EphrinA1, sensitivity to PP2 (EphA2 [4]; PP2 2 μM 1 hour, 250 ng/ml EphrinA1-FC 30 mins): insensitive
thrombin-induced EphA2 tyrosine phosphorylation (EphA2 [4]; PP2 2 μM 1 hour, 1 U/ml thrombin 30 mins): completely abrogated

B1: EphrinA1-FC: Mouse EphrinA1 in a form of FC fusion, R and D Systems (protein)
chain: DRHIVFWNSSNPKFREEDYTVHVQLNDYLDIICPHYEDDSVADAAMERYTLYMVEHQEYVACQPQSKDQVRWNCNRPSAKHGPEKLSEKFQRFTPFILGKEFKEGHSYYYISKPIYHQESQCLKLKVTVNGKITHNPQAHVNPQEKRLQADDPEVQVLHSIGYS
modifications: left off: a dimerising Fc or GST
notes: Mouse EphrinA1 in a form of FC fusion, R and D Systems
stimulation of ICAM-1 expression (ICAM-1; EphrinA1-FC up to 10 μg/ml, no thrombin): did not stimulate
activation of EphA2 in endothelial cells (EphA2 [4]; FC-fusion protein, 250 ng/ml, 30 mins): induced significant activation
